Measured values reported in patent US10406207B2, “Peptide conjugates of GLP-1 receptor agonists and gastrin and their use” (priority 2010, dated 2019).
Read-outs that look alike come from different tables or passages of the source. Numbered stars: 1 amine (or outer) side, 2 acyl side, 3 side chain; on linkers, the order of the positions; unused ones are H or OH. Square brackets hold non-standard residues; d marks the D form. Side chains are listed from the residue outwards. Peptide text beside a SMILES is read from it. * marks the point of attachment. γGlu = O=C(O)[C@H](CCC(=O)[*:2])N[*:1]; Palmitoyl = CCCCCCCCCCCCCCCC(=O)*; Orn = NCCC[C@H](N)C(=O)O; AEEA = NCCOCCOCC(=O)O

Key:
human CCK-B R = target: T1, human CCK-B R (Homo sapiens, UniProt P32239); assay: Human CCK-B receptor efficacy assay (AlphaScreen SureFire p-ERK); type: cell-based; conditions: read-out: hCCK-B R EC50
T1 construct: expressed in transfected cells
T1 sequence (P32239 1-447): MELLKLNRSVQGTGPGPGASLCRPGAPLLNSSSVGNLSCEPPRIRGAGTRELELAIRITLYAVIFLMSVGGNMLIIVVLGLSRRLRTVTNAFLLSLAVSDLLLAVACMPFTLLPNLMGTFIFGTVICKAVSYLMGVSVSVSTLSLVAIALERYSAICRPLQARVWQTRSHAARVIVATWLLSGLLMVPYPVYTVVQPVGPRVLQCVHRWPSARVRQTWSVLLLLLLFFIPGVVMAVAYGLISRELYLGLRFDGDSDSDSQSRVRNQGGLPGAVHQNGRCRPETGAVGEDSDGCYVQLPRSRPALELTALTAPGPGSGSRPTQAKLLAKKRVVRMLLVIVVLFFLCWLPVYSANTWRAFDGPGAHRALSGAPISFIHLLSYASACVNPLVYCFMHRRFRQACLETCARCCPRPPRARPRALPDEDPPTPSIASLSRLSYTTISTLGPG
Experimental: CCK-B Receptor (CCK-B R) Efficacy Assay:
In vitro effects of peptide conjugates of the invention were estimated by measuring p-ERK (using the AlphaScreen™ SureFire p-ERK assay) in HEK293 cells stably expressing the human and mouse CCK-B R (high-affinity Gastrin receptor), respectively. The Gastrin receptor efficacy assays (AlphaScreen™ SureFire p-ERK assay) were performed as follows:
The CCK-B R expressing cells in question were seeded at 20,000 cells/well in 100 μl growth medium [DMEM, 10% FCS, Penicillin (100 IU/ml), Streptomycin (100 μg/ml)] in a 96-well plate coated with poly-D-lysine. The cells were incubated in an incubator (37° C., 5% 002) for two days.
The growth medium was changed to 80 μl of serum-free medium [DMEM, Penicillin (100 IU/ml), Streptomycin (100 μg/ml)] per well, and incubation of the cells was continued for 19 hours in the incubator (37° C., 5% CO2).
After 19 hours, 20 μl of serum-free medium containing one of 5 different concentrations of peptide conjugate was added (performed in triplicate for each concentration), and the cells were incubated for 5 min. at room temperature. • 2. The stimulation medium was discarded by quickly turning the plate upside down, and 60 μl 1× lysis buffer (from the SureFire assay kit) was added per well. • 3. The plate was shaken on a plate-shaker for 5 min and then placed on ice. • 4. SureFire P-ERK assay: 4 μl of each supernatant was transferred to a 384 well proxiplate (Perkin Elmer). • 5. 4 μl of each of the two control lysates (unstimulated and stimulated) were added to the proxiplate in duplicate. • 6. […] 7 μl of the latter reaction buffer+activation buffer+beads per well were added in the proxiplate, the mix being resuspended carefully before addition to the wells. • 7. The plate was incubated for 2 hours in a dark box in a 22° C. incubator. • 8. The plate was analyzed on an Envision™ light-emission plate reader (Perkin-Elmer) using the appropriate reading program (Perkin-Elmer).

human GLP-1 R = target: T2, human GLP-1 R (Homo sapiens, UniProt P43220); assay: Human GLP-1 receptor efficacy assay (cAMP induction, FlashPlate); type: cell-based; conditions: read-out: hGLP-1 R EC50
T2 construct: expressed in transfected cells
Experimental: On the day of analysis, growth medium was removed and the cells were washed once with 200 μl Tyrode buffer [Tyrode's Salts (9.6 g/l), 10 mM HEPES, pH 7.4]. […] The reaction was stopped by addition of 25 μl 0.5 M HCl and incubated on ice for 60 min.

T2 sequence (P43220 24-463): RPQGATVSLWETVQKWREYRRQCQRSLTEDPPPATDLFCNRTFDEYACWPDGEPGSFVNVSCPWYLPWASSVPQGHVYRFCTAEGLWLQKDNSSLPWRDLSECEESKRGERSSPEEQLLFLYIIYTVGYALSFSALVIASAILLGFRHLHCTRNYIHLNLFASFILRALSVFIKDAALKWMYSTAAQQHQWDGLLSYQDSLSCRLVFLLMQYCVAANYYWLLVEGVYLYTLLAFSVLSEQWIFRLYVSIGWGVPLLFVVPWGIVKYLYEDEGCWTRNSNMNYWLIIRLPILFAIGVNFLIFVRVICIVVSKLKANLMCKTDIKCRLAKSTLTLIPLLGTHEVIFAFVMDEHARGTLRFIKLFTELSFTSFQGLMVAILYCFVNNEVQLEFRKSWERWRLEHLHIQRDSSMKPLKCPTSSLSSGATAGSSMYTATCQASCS

| Structure (SMILES) | EC50 (human CCK-B R; Table 2) | EC50 (human GLP-1 R; Table 2) | EC50 (human CCK-B R; Table 3) | EC50 (human GLP-1 R; Table 3) |
| --- | --- | --- | --- | --- |
| CC[C@H](C)[C@H](NC(=O)[C@H](Cc1ccccc1)NC(=O)[C@H](CC(C)C)NC(=O)[C@H](CCCNC(=N)N)NC(=O)[C@@H](NC(=O)[C@H](C)NC(=O)[C@H](CCC(=O)O)NC(=O)[C@H](CCCCN)NC(=O)[C@H](CCC(=O)O)NC(=O)[C@H](CCSC)NC(=O)[C@H](CCC(N)=O)NC(=O)[C@H](CCCCN)NC(=O)[C@H](CO)NC(=O)[C@H](CC(C)C)NC(=O)[C@H](CC(=O)O)NC(=O)[C@H](CO)NC(=O)[C@@H](NC(=O)[C@H](Cc1ccccc1)NC(=O)[C@@H](NC(=O)CNC(=O)[C@H](CCC(=O)O)NC(=O)CNC(=O)[C@@H](N)Cc1c[nH]cn1)[C@@H](C)O)[C@@H](C)O)C(C)C)C(=O)N[C@@H](CCC(=O)O)C(=O)N[C@@H](Cc1c[nH]c2ccccc12)C(=O)N[C@@H](CC(C)C)C(=O)N[C@@H](CCCCN)C(=O)N[C@@H](CC(N)=O)C(=O)NCCOCCOCC(=O)NCCOCCOCC(=O)N[C@@H](Cc1ccc(O)cc1)C(=O)NCC(=O)N[C@@H](Cc1c[nH]c2ccccc12)C(=O)N[C@@H](CC(C)C)C(=O)N[C@@H](CC(=O)O)C(=O)N[C@@H](Cc1ccccc1)C(N)=O [Compound 81, [Lys16]Exendin-4(1-28)-Peg3-Peg3-[Leu4]Gastrin6] (H-HGEGTFTSDLSKQMEKEAVRLFIEWLKN[AEEA][AEEA]YGWLDF-NH2) | 15 nM | 0.032 nM |  |  |
| CC[C@H](C)[C@H](NC(=O)[C@H](Cc1ccccc1)NC(=O)[C@H](CC(C)C)NC(=O)[C@H](CCCNC(=N)N)NC(=O)[C@@H](NC(=O)[C@H](C)NC(=O)[C@H](CCC(=O)O)NC(=O)[C@H](CCC(=O)O)NC(=O)[C@H](CCC(=O)O)NC(=O)[C@H](CC(C)C)NC(=O)[C@H](Cc1ccc(O)cc1)NC(=O)[C@H](CCCCN)NC(=O)[C@H](CO)NC(=O)[C@H](CC(C)C)NC(=O)[C@H](CCC(=O)O)NC(=O)[C@H](CO)NC(=O)[C@@H](NC(=O)[C@H](Cc1ccccc1)NC(=O)[C@@H](NC(=O)CNC(=O)[C@H](CCC(=O)O)NC(=O)CNC(=O)[C@@H](N)Cc1c[nH]cn1)[C@@H](C)O)[C@@H](C)O)C(C)C)C(=O)N[C@@H](CCC(=O)O)C(=O)N[C@@H](Cc1ccccc1)C(=O)N[C@@H](CC(C)C)C(=O)N[C@@H](CCCCN)C(=O)N[C@@H](CCCN)C(=O)NCCOCCOCC(=O)N[C@@H](Cc1c[nH]c2ccccc12)C(=O)N[C@@H](CC(C)C)C(=O)N[C@@H](CC(=O)O)C(=O)N[C@@H](Cc1ccccc1)C(N)=O [Compound 98, [Glu9,Leu14,Phe25,Tyr13]Exendin-4(1-27)-Orn-Peg3-[Leu2]Gastrin4] (H-HGEGTFTSELSKYLEEEAVRLFIEFLK[Orn][AEEA]WLDF-NH2) | 10 nM | 0.046 nM |  |  |
| CC[C@H](C)[C@H](NC(=O)[C@H](Cc1ccccc1)NC(=O)[C@H](CC(C)C)NC(=O)[C@H](CCCNC(=N)N)NC(=O)[C@@H](NC(=O)[C@H](C)NC(=O)[C@H](CCC(=O)O)NC(=O)[C@H](CCC(=O)O)NC(=O)[C@H](CCC(=O)O)NC(=O)[C@H](CC(C)C)NC(=O)[C@H](Cc1ccc(O)cc1)NC(=O)[C@H](CCCCN)NC(=O)[C@H](CO)NC(=O)[C@H](CC(C)C)NC(=O)[C@H](CC(=O)O)NC(=O)[C@H](CO)NC(=O)[C@@H](NC(=O)[C@H](Cc1ccccc1)NC(=O)[C@@H](NC(=O)CNC(=O)[C@H](CCC(=O)O)NC(=O)CNC(=O)[C@@H](N)Cc1c[nH]cn1)[C@@H](C)O)[C@@H](C)O)C(C)C)C(=O)N[C@@H](CCC(=O)O)C(=O)N[C@@H](Cc1ccccc1)C(=O)N[C@@H](CC(C)C)C(=O)N[C@@H](CCCNC(=N)N)C(=O)NCCOCCOCC(=O)N[C@@H](Cc1ccc(O)cc1)C(=O)NCC(=O)N[C@@H](Cc1c[nH]c2ccccc12)C(=O)N[C@@H](CC(C)C)C(=O)N[C@@H](CC(=O)O)C(=O)N[C@@H](Cc1ccccc1)C(N)=O [Compound 91, [Arg27,Leu14,Phe25,Tyr13]Exendin-4(1-27)-Peg3-[Leu4]Gastrin6] (H-HGEGTFTSDLSKYLEEEAVRLFIEFLR[AEEA]YGWLDF-NH2) | 18 nM | 0.068 nM |  |  |
| CCCCCCCCCCCCCCCC(=O)N[C@@H](CCC(=O)NCCCC[C@H](NC(=O)CNC(=O)[C@H](CCCNC(=N)N)NC(=O)[C@@H](NC(=O)[C@H](CC(C)C)NC(=O)[C@H](Cc1c[nH]c2ccccc12)NC(=O)[C@H](C)NC(=O)[C@@H](NC(=O)[C@H](Cc1ccccc1)NC(=O)[C@H](CCC(=O)O)NC(=O)[C@H](CCCNC(=N)N)NC(=O)[C@H](C)NC(=O)[C@H](C)NC(=O)[C@H](CCC(N)=O)NC(=O)CNC(=O)[C@H](CCC(=O)O)NC(=O)[C@H](CC(C)C)NC(=O)[C@H](Cc1ccc(O)cc1)NC(=O)[C@H](CO)NC(=O)[C@H](CO)NC(=O)[C@@H](NC(=O)[C@H](CC(=O)O)NC(=O)[C@H](CO)NC(=O)[C@@H](NC(=O)[C@H](Cc1ccccc1)NC(=O)[C@@H](NC(=O)CNC(=O)[C@H](CCC(=O)O)NC(=O)CNC(=O)[C@@H](N)Cc1c[nH]cn1)[C@@H](C)O)[C@@H](C)O)C(C)C)[C@@H](C)CC)C(C)C)C(=O)NCC(=O)NCCOCCOCC(=O)NCCOCCOCC(=O)N[C@@H](Cc1ccc(O)cc1)C(=O)NCC(=O)N[C@@H](Cc1c[nH]c2ccccc12)C(=O)N[C@@H](CC(C)C)C(=O)N[C@@H](CC(=O)O)C(=O)N[C@@H](Cc1ccccc1)C(N)=O)C(=O)O [Compound 110, [Arg26,34,Gly8,Lys(Hexadecanoyl-isoGlu)36]GLP-1(7-37)-Peg3-Peg3-[Leu4]Gastrin6] (H-HGEGTFTSDVSSYLEGQAAREFIAWLVRGK([γGlu-Palmitoyl])G[AEEA][AEEA]YGWLDF-NH2) |  |  | 29 nM | 0.12 nM |
| CC[C@H](C)[C@H](NC(=O)[C@H](Cc1ccccc1)NC(=O)[C@H](CC(C)C)NC(=O)[C@H](CCCNC(=N)N)NC(=O)[C@@H](NC(=O)[C@H](C)NC(=O)[C@H](CCC(=O)O)NC(=O)[C@H](CCC(=O)O)NC(=O)[C@H](CCC(=O)O)NC(=O)[C@H](CC(C)C)NC(=O)[C@H](Cc1ccc(O)cc1)NC(=O)[C@H](CCCNC(=N)N)NC(=O)[C@H](CO)NC(=O)[C@H](CC(C)C)NC(=O)[C@H](CC(=O)O)NC(=O)[C@H](CO)NC(=O)[C@@H](NC(=O)[C@H](Cc1ccccc1)NC(=O)[C@@H](NC(=O)CNC(=O)[C@H](CCC(=O)O)NC(=O)CNC(=O)[C@@H](N)Cc1c[nH]cn1)[C@@H](C)O)[C@@H](C)O)C(C)C)C(=O)N[C@@H](CCC(=O)O)C(=O)N[C@@H](Cc1ccccc1)C(=O)N[C@@H](CC(C)C)C(=O)N[C@@H](CCCCN)C(=O)NCCOCCOCC(=O)N[C@@H](Cc1ccc(O)cc1)C(=O)NCC(=O)N[C@@H](Cc1c[nH]c2ccccc12)C(=O)N[C@@H](CC(C)C)C(=O)N[C@@H](CC(=O)O)C(=O)N[C@@H](Cc1ccccc1)C(N)=O [Compound 95, [Arg12,Leu14,Phe25,Tyr13]Exendin-4(1-27)-Peg3-[Leu4]Gastrin6] (H-HGEGTFTSDLSRYLEEEAVRLFIEFLK[AEEA]YGWLDF-NH2) | 14 nM | 0.079 nM |  |  |
| CC[C@H](C)[C@H](NC(=O)[C@H](Cc1ccccc1)NC(=O)[C@H](CC(C)C)NC(=O)[C@H](CCCNC(=N)N)NC(=O)[C@@H](NC(=O)[C@H](C)NC(=O)[C@H](CCC(=O)O)NC(=O)[C@H](CCC(=O)O)NC(=O)[C@H](CCC(=O)O)NC(=O)[C@H](CC(C)C)NC(=O)[C@H](Cc1ccc(O)cc1)NC(=O)[C@H](CCCCN)NC(=O)[C@H](CO)NC(=O)[C@H](CC(C)C)NC(=O)[C@H](CCC(=O)O)NC(=O)[C@H](CO)NC(=O)[C@@H](NC(=O)[C@H](Cc1ccccc1)NC(=O)[C@@H](NC(=O)CNC(=O)[C@H](CCC(=O)O)NC(=O)CNC(=O)[C@@H](N)Cc1c[nH]cn1)[C@@H](C)O)[C@@H](C)O)C(C)C)C(=O)N[C@@H](CCC(=O)O)C(=O)N[C@@H](Cc1ccccc1)C(=O)N[C@@H](CC(C)C)C(=O)N[C@@H](CCCCN)C(=O)N[C@@H](CCCN)C(=O)N[C@@H](CCCN)C(=O)N[C@@H](Cc1c[nH]c2ccccc12)C(=O)N[C@@H](CC(C)C)C(=O)N[C@@H](CC(=O)O)C(=O)N[C@@H](Cc1ccccc1)C(N)=O [Compound 100, [Glu9,Leu14,Phe25,Tyr13]Exendin-4(1-27)-Orn-Orn-[Leu2]Gastrin4] (H-HGEGTFTSELSKYLEEEAVRLFIEFLK[Orn][Orn]WLDF-NH2) | 860 nM | 0.11 nM |  |  |
| CC[C@H](C)[C@H](NC(=O)[C@H](Cc1ccccc1)NC(=O)[C@H](CC(C)C)NC(=O)[C@H](CCCNC(=N)N)NC(=O)[C@@H](NC(=O)[C@H](C)NC(=O)[C@H](CCC(=O)O)NC(=O)[C@H](CCC(=O)O)NC(=O)[C@H](CCC(=O)O)NC(=O)[C@H](CC(C)C)NC(=O)[C@H](Cc1ccc(O)cc1)NC(=O)[C@H](CCCCN)NC(=O)[C@H](CO)NC(=O)[C@H](CC(C)C)NC(=O)[C@H](CCC(=O)O)NC(=O)[C@H](CO)NC(=O)[C@@H](NC(=O)[C@H](Cc1ccccc1)NC(=O)[C@@H](NC(=O)CNC(=O)[C@H](CCC(=O)O)NC(=O)CNC(=O)[C@@H](N)Cc1c[nH]cn1)[C@@H](C)O)[C@@H](C)O)C(C)C)C(=O)N[C@@H](CCC(=O)O)C(=O)N[C@@H](Cc1ccccc1)C(=O)N[C@@H](CC(C)C)C(=O)N[C@@H](CCCCN)C(=O)N[C@@H](CCCN)C(=O)N[C@@H](CCCN)C(=O)N[C@@H](Cc1ccc(O)cc1)C(=O)NCC(=O)N[C@@H](Cc1c[nH]c2ccccc12)C(=O)N[C@@H](CC(C)C)C(=O)N[C@@H](CC(=O)O)C(=O)N[C@@H](Cc1ccccc1)C(N)=O [Compound 105, [Glu9,Leu14,Phe25,Tyr13]Exendin-4(1-27)-Orn-Orn-[Leu4]Gastrin6] (H-HGEGTFTSELSKYLEEEAVRLFIEFLK[Orn][Orn]YGWLDF-NH2) | 16 nM | 0.11 nM |  |  |
